# EPA's ToxValDB 9.5 (doi:10.2903/j.efsa.2010.1897)
# Several values for one entry are separate records, joined by “and”; a condition that tells them apart may be missing. Equal values may be shown once.
# How the values were obtained:
# [1] = tested on: Colinus virginianus; conditions: for LC50: diet
# [2] = tested on: Rattus norvegicus
# [3] = tested on: Anas platyrhynchos; conditions: for LC50: short-term, feed
# [4] = tested on: Cyprinodon variegatus; conditions: acute; duration: 96 hours; mortality
# [5] = tested on: Tagia sp.; conditions: acute; duration: 14 days; mortality
# [6] = tested on: Apis mellifera; conditions: acute; duration: 48 hours; oral; unspecified; mortality
# [7] = tested on: Coturnix japonica; conditions: acute; oral; mortality
# [8] = tested on: Folsomia candida; conditions: chronic/long-term; duration: 28 days; reproduction
# [9] = tested on: Mus musculus
# [10] = tested on: Oncorhynchus mykiss
# [11] = tested on: Daphnia magna; conditions: chronic/long-term; duration: 21 days
# [12] = tested on: Typhlodromus pyri; assay: LR50; higher = less toxic; conditions: not reported; mortality
smiles,measurement,setting,value
"NC(Cc1ncn[nH]1)C(=O)O (stereo not drawn) [1,2,4-Triazole-3-alanine]",LC50,"[1]; acute, oral, mortality",> 1400 mg/kg-day
same,NOAEL,"[2]; developmental, development",100 mg/kg-day
same,LC50,"[3]; oral, mortality",> 1340 mg/kg-day
CC(C1CC1)C(O)(Cn1cncn1)c1ccc(Cl)cc1 (stereo not drawn) [Cyproconazole],LC50,[4],21 µg/mL
same,LC50,[5],> 335 mg/kg
same,LD50,[6],> 100 µg/piece
same,LC50,"[1]; acute, oral, mortality",478 mg/kg-day and 585 mg/kg-day
same,LD50,"[1]; acute, oral, mortality",94 mg/kg-day and 183 mg/kg-day
same,NOEC,[1]; reproduction developmental,6.6 mg/kg-day
same,LD50,[7],130 mg/kg-day
same,NOEC,[8],55.8 mg/kg
same,LD50,"[9]; acute, oral, mortality",200 mg/kg-day
same,NOAEL,"[9]; chronic, duration: 18 months, body weight",1.84 mg/kg-day
same,LC50,"[10]; acute, duration: 96 hours, mortality",19 µg/mL
same,NOEC,"[10]; chronic/long-term, duration: 89 days, growth",0.16 mg/L
same,NOAEL,"[2]; chronic, duration: 2 years, M/F, body weight",2.22 mg/kg-day
same,NOAEL,"[2]; reproduction developmental, F, reproduction",1.7 mg/kg-day
same,NOAEL,"[2]; reproduction developmental, M, organ weight",1.4 mg/kg-day
same,NOEC,[11],0.023 mg/L
same,LD50,"[3]; acute, oral, unspecified, mortality",> 2000 mg/kg-day
same,NOEC,[3]; reproductive,1.4 mg/kg-day and 2.4 mg/kg-day
same,LC50,"[3]; oral, mortality",151 mg/kg-day
same,LR50,[12],29.4 g/ha
